In ChEMBL document CHEMBL1138674, “Validation of automated docking programs for docking and database screening against RNA drug targets” (J Med Chem, 2004) one finds Kd data, which are given here for 14 molecules.

Usually Kd stands for the concentration at which binding is half-saturated. The low end stands for tighter binding, the high end for weaker binding.

The data set is described as follows: Dissociation constant of the compound. Format: physicochemical.
Take `O=C(O)CCCC[C@@H]1SC[C@@H]2NC(=O)N[C@@H]21` [BIOTIN]: the Kd was determined as 6 µM.
As to `NC[C@@H]1O[C@H](O[C@H]2[C@@H](O)[C@H](O[C@@H]3[C@@H](O)[C@H](N)C[C@H](N)[C@H]3O[C@H]3O[C@H](CO)[C@@H](O)[C@H](O)[C@H]3N)O[C@@H]2CO)[C@H](N)[C@@H](O)[C@@H]1O` [PAROMOMYCIN], the Kd amounted to 0.2 µM.
Turning to `NC[C@@H]1O[C@H](O[C@H]2[C@@H](O)[C@H](O[C@@H]3[C@@H](O)[C@H](N)C[C@H](N)[C@H]3O[C@H]3O[C@H](CN)[C@@H](O)[C@H](O)[C@H]3N)O[C@@H]2CO)[C@H](N)[C@@H](O)[C@@H]1O` (stereo in doubt; form 1) [FRAMYCETIN], the Kd came to 1 µM. Compared with the last molecule, the Kd is about 5-fold higher.
The molecule `Cn1c(=O)c2[nH]cnc2n(C)c1=O` [THEOPHYLLINE] gave a Kd of 0.4 µM.
For `NC(=O)NCCC[C@H](N)C(=O)O` [L-CITRULLINE], binding was put at a Kd of 68 µM.
As for `NC[C@H]1O[C@H](O[C@H]2[C@H](O)[C@@H](O)[C@H](N)C[C@@H]2N)[C@H](N)[C@@H](O)[C@@H]1O` [NEAMINE], the figure is 1 µM; as for `Cc1cc2nc3c(=O)[nH]c(=O)nc-3n(C[C@H](O)[C@H](O)[C@H](O)COP(=O)(O)O)c2cc1C` [RIBOFLAVIN 5'-PHOSPHATE], 0.5 µM; as for `N=C(N)NCCC[C@H](N)C(=O)O` (stereo in doubt; form 2) [ARGININE], 1000 µM.
As for GENTAMICIN, the figure is 0.01 µM; as for `NC[C@@H]1O[C@H](O[C@H]2[C@@H](O)[C@H](O[C@@H]3[C@@H](O)[C@H](N)C[C@H](N)[C@H]3O[C@H]3O[C@H](CN)[C@@H](O)[C@H](O)[C@H]3N)O[C@@H]2CO)[C@H](N)[C@@H](O)[C@@H]1O` (stereo in doubt; form 2) [FRAMYCETIN], 0.1 µM; as for `Nc1ncnc2c1ncn2[C@@H]1O[C@H](COP(=O)(O)O)[C@@H](O)[C@H]1O` [ADENOSINE PHOSPHATE], 2.7 µM.
Take `NC[C@H]1O[C@H](O[C@H]2[C@H](O)[C@@H](O[C@H]3O[C@H](CO)[C@@H](O)[C@H](N)[C@H]3O)[C@H](N)C[C@@H]2N)[C@H](N)C[C@@H]1O` [TOBRAMYCIN]: the Kd was 0.0009 µM.
`CC(=O)c1ccc2c(c1)N(CCCN(C)C)c1ccccc1S2` [ACEPROMAZINE] had a Kd of 0.1 µM.
For `N=C(N)NCCC[C@H](N)C(=O)O` (stereo in doubt; form 1) [ARGININE], the Kd worked out at 60 µM. This Kd lies about 600-fold higher than the previous one.
